# From PubChem BioAssay (NCI)
# Where “and” joins values, the source holds several entries; their conditions need not be identical. Equal entries are not always repeated.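 How tested: cells in 96-well plates exposed to compound for 48 hours at five concentrations. The concentration for 50% growth inhibition is given as GI50. At the TGI there is no net growth.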
# Tested on: SK-MEL-2 melanoma
# Test: NCI tumour cell line growth inhibition, 48 h
Structure (SMILES),TGI,GI50
O=c1/c(=C/c2ccccc2[N+](=O)[O-])sc2nnc(-c3ccco3)n12,34.6 µM,
COC(=O)C[C@](O)(CCCC(C)(C)O)C(=O)O[C@@H]1C(OC)=C[C@]23CCCN2CCc2cc4c(cc2[C@H]13)OCO4,0.994 µM and 0.198 µM,0.0455 µM
C[N+](C)(C)CC1CCCc2ccccc2C1=O (stereo not given),27.2 µM,
COc1cc(C(=O)N2CCN(C=O)C2=S)cc(OC)c1OC,42 µM,19.9 µM
Cn1c(I)c(C#CCO[Si](C)(C)C(C)(C)C)c(=O)[nH]c1=O,27.7 µM,13.9 µM
CCCCC#CC1=C(Br)C(=O)OC1,15.2 µM,3.12 µM
Cc1ccc(SC2c3ccc(C)cc3Oc3nc(N)c(C#N)c(N)c32)cc1 (stereo not given),3.71 µM,1.84 µM
Cc1cn2c(=O)c3ncn(C4OC(CO)C(O)C4O)c3n(C)c2n1 (stereo not given),> 100 µM,
O=C(Nc1ccc(Br)cc1F)c1cc(F)ccc1O,2.56 µM,0.398 µM
CC/C=C\C[C@H](O)C/C=C1/C(=O)C(Cl)=C[C@@H]1C/C=C\CCCC(=O)OC,3.52 µM,0.843 µM
c1ccc(-c2nnc(-c3ccccn3)s2)nc1,> 100 µM,> 100 µM
CN1CCN(C2CCN(C(=O)Nc3cc(Oc4ccc(NC(=O)C5(C(=O)Nc6ccc(F)cc6)CC5)c(F)c4)ccn3)CC2)CC1,2.18 µM,0.744 µM
CCN1CCN(C(=O)[C@@]2(C)CC[C@]3(C)CC[C@]4(C)C(=CC(=O)[C@@H]5[C@@]6(C)CC[C@H](OC7C[C@@H](O)[C@@H](O)C(C)O7)C(C)(C)[C@@H]6CC[C@]54C)[C@@H]3C2)CC1 (stereo not given in full),17.9 µM,8.95 µM
Nc1nn2cc(F)cnc2c1C(=O)Nc1cncc(F)c1N1CCC(C(=O)N2CCN(C3COC3)CC2)CC1,0.821 µM,0.194 µM

# Tested on: OVCAR-4 ovarian
# Test: NCI tumour cell line growth inhibition, 48 h
Structure (SMILES),GI50,TGI
Oc1ccc(Nc2ncnc3c2sc2ncccc23)cc1,> 88.7 µM,> 100 µM
COc1cccc(CC(C)=C(c2ccc(OCCN(C)C)cc2)c2ccc(OCCN(C)C)cc2)c1,3.53 µM,8.16 µM
COC(=O)COc1ccccc1/C=C1\N=C(c2ccccc2)N(c2cc(C(F)(F)F)ccc2Cl)C1=O,39.5 µM,> 100 µM
C=C1C(=O)OC2CC(C)C(C(CC(C)=O)OC(C)=O)=CCC12 (stereo not given),,34.2 µM
CC(=O)OC1COC(Oc2c(C)c3c4c(c2O)[C@@H](C)CC[C@@H]4[C@@H](C)C[C@H]3C=C(C)C)C(O)C1OC(C)=O (stereo not given in full),21.6 µM,49.3 µM
S=C(Nc1ccc(Cl)cc1)Nc1ccc(-c2nc3ccccc3s2)cc1,14.4 µM,69.4 µM
O=c1/c(=C/c2ccccc2[N+](=O)[O-])sc2nnc(-c3ccco3)n12,,40 µM
COC(=O)C[C@](O)(CCCC(C)(C)O)C(=O)O[C@@H]1C(OC)=C[C@]23CCCN2CCc2cc4c(cc2[C@H]13)OCO4,0.0221 µM,1.15 µM and 0.149 µM
C[N+](C)(C)CC1CCCc2ccccc2C1=O (stereo not given),15.7 µM,41.2 µM
COc1cc(C(=O)N2CCN(C=O)C2=S)cc(OC)c1OC,24.1 µM,58.9 µM
Cn1c(I)c(C#CCO[Si](C)(C)C(C)(C)C)c(=O)[nH]c1=O,10.1 µM,27.4 µM
